Drawing on patent publication US20060252828A1 (priority 2003, published 2006), this text covers Observed efficacy for one compound.

The test system of the test is Meloidogyne spp (Mixture of Meloidogyne incognita and Meloidogyne hapla). As to conditions: in vivo.

Several values for one entry are separate records, joined by “and”; a condition that tells them apart may be missing. Identical values can stand only once.

Regarding `CN1CSC(=S)N(C)C1` [dazomet, 3,5-dimethyltetrahydro-2H-1,3,5-thiadiazine-2-thione], the Observed efficacy is 2% and 0%.
